Laboratory results reported in ChEMBL document CHEMBL4038308, “Lipophosphonoxins II: Design, Synthesis, and Properties of Novel Broad Spectrum Antibacterial Agents” (J Med Chem, 2017).
≈ marks a conversion by molar mass, not a printed value. Calls of active or inactive are those of the source. The rule behind the calls is not given here.

Tests used:
[1] = Critical micellar concentration of the compound by capillary electrophoresis method
[2] = test system: Escherichia coli; test: Antibacterial activity against Escherichia coli CCM 3954 after 24 hrs by microdilution method; format: functional; settings: CCM 3954, 24 h
[3] = test system: Pseudomonas aeruginosa; test: Antibacterial activity against Pseudomonas aeruginosa CCM 3955 after 24 hrs by microdilution method; format: functional; settings: CCM 3955, 24 h
[4] = test system: Staphylococcus aureus; test: Antibacterial activity against Staphylococcus aureus CCM 4223 after 24 hrs by microdilution method; format: functional; settings: CCM 4223, 24 h
[5] = test system: Bacillus subtilis; test: Antibacterial activity against Bacillus subtilis after 24 hrs by microdilution method; format: functional
[6] = test system: Escherichia coli; test: Antibacterial activity against Escherichia coli 16702 after 24 hrs by microdilution method; format: functional; settings: Escherichia coli, 16702, 24 h
[7] = test system: Pseudomonas aeruginosa; test: Antibacterial activity against Pseudomonas aeruginosa 16575 after 24 hrs by microdilution method; format: functional; settings: Pseudomonas aeruginosa, 16575, 24 h
[8] = test system: Staphylococcus aureus; test: Antibacterial activity against methicillin-resistant Staphylococcus aureus 4591 clinical isolates after 24 hrs by microdilution method; format: functional; settings: Staphylococcus aureus, 4591, 24 h
[9] = test system: Staphylococcus haemolyticus; test: Antibacterial activity against fluoroquinolne-resistant Staphylococcus haemolyticus 16568 after 24 hrs by microdilution method; format: functional; settings: Staphylococcus haemolyticus, 16568, 24 h
[10] = test system: Staphylococcus epidermidis; test: Antibacterial activity against Staphylococcus epidermidis 8700/B after 24 hrs by microdilution method; format: functional
[11] = test system: Enterococcus faecium; test: Antibacterial activity against vancomycin-resistant Enterococcus faecium 419/ana clinical isolates after 24 hrs by microdilution method; format: functional
[12] = test system: Salmonella enteritidis; test: Antibacterial activity against Salmonella enteritidis S2-25 after 24 hrs by microdilution method; format: functional, Salmonella enterica subsp. enterica serovar Enteritidis; settings: Salmonella enterica, S2-25, 24 h
[13] = test system: Burkholderia multivorans; test: Antibacterial activity against Burkholderia multivorans after 24 hrs by microdilution method; format: functional
[14] = test system: Escherichia coli; test: Bactericidal activity against Escherichia coli CCM 3954 assessed as reduction in bacterial count at 6.25 to 25 mg/L after 45 mins by time kill assay; format: functional
[15] = test system: Escherichia coli; test: Bactericidal activity against Escherichia coli CCM 3954 assessed as bacterial count at 25 mg/L up to 6 hrs by time kill assay; format: functional
[16] = test system: Escherichia coli; test: Bactericidal activity against Escherichia coli CCM 3954 assessed as reduction in bacterial count at 6.25 to 12.5 mg/L after 24 hrs by time kill assay; format: functional
[17] = test system: Staphylococcus aureus; test: Bactericidal activity against Staphylococcus aureus CCM 4223 assessed as reduction in bacterial count at 6.25 to 25 mg/L after 15 mins by time kill assay; format: functional
[18] = test system: Staphylococcus aureus; test: Bactericidal activity against Staphylococcus aureus CCM 4223 assessed as reduction in bacterial count at 6.25 mg/L after 6 to 24 hrs by time kill assay; format: functional
[19] = test system: Staphylococcus aureus; test: Bactericidal activity against Staphylococcus aureus CCM 4223 assessed as reduction in bacterial count at 25 mg/L after 5 hrs by time kill assay; format: functional
[20] = test system: Staphylococcus aureus; test: Bactericidal activity against Staphylococcus aureus CCM 4223 assessed as reduction in bacterial count at 12.5 mg/L after 6 hrs by time kill assay; format: functional
[21] = test system: Bacillus subtilis; test: Antibacterial activity against Bacillus subtilis assessed as inhibition of peptidoglycan synthesis at 2.5 mg/L after 50 mins by [3H]-N-acetylglucosamine incorporation assay; format: functional
[22] = test system: Bacillus subtilis; test: Antibacterial activity against Bacillus subtilis assessed as inhibition of protein synthesis at 2.5 mg/L after 50 mins by [35S]-methionine incorporation assay; format: functional
[23] = Pore forming activity across black lipid bilayer membranes assessed as induction of variation in membrane current by measuring pore conductance at 5 ug/ml
[24] = test system: Lipid bilayer; test: Binding affinity to DOPG large unilamellar vesicle assessed as carboxyfluorescein leakage at 10 mg/L after 20 secs by fluorescence-based assay relative to control
[25] = test system: Staphylococcus aureus; test: Induction of cytoplasmic membrane permeabilization in Staphylococcus aureus CCM 4223 assessed as increase in propidium iodide fluorescence intensity at 5 mg/L by spectrofluorometric analysis; format: functional
[26] = test system: Staphylococcus epidermidis; test: Induction of cytoplasmic membrane permeabilization in Staphylococcus epidermidis 8700/B assessed as increase in propidium iodide fluorescence intensity at 5 mg/L by spectrofluorometric analysis; format: functional
[27] = test system: Escherichia coli; test: Induction of cytoplasmic membrane permeabilization in Escherichia coli CCM 3954 assessed as increase in propidium iodide fluorescence intensity at 5 mg/L by spectrofluorometric analysis; format: functional
[28] = test system: Pseudomonas aeruginosa; test: Induction of cytoplasmic membrane permeabilization in Pseudomonas aeruginosa CCM 3955 assessed as increase in propidium iodide fluorescence intensity at 5 mg/L by spectrofluorometric analysis; format: functional
[29] = test system: J774.A1; test: Cytotoxicity against mouse J774A.1 cells assessed as damage to cell membrane by measuring propidium iodide intake at 5 mg/L by spectrofluorometric analysis; format: cell-based
[30] = test system: TERT-RPE1; test: Cytotoxicity against human RPE1 cells assessed as reduction in cell viability after 48 hrs by ATPlite reagent based assay; settings: tert-rpe1, 48 h
[31] = test system: HepG2; test: Cytotoxicity against human HepG2 cells assessed as reduction in cell viability after 48 hrs by ATPlite reagent based assay; settings: hepg2, 48 h
[32] = test system: TERT-RPE1; test: Induction of apoptosis in human RPE1 cells assessed as caspase 3/7 activation up to 80 mg/L after 4 hrs by caspase-Glo 3/7 luminescent assay; format: cell-based; settings: tert-rpe1, 4 h
[33] = test system: HepG2; test: Cytotoxicity against human HepG2 cells assessed as disruption of cell membrane integrity after 4 hrs by CytoTox-ONE-based assay; settings: hepg2, 4 h
[34] = Apparent permeability across apical to basolateral side in human Caco2 cells at 200 uM after 3 hrs by LC-MS analysis; format: ADME, cell-based; settings: caco-2, 3 h
[35] = Chemical stability of compound at 50 to 500 mg/L at pH 0.18 after 24 hrs at room temperature by LC-MS analysis; format: physicochemical; settings: buffer, pH 0.18, 24 h
[36] = Chemical stability of compound at 50 to 500 mg/L at pH 5 after 24 hrs at room temperature by LC-MS analysis; format: physicochemical; settings: buffer, pH 5, 24 h
[37] = Chemical stability of compound at 50 to 500 mg/L at pH 8.8 after 24 hrs at room temperature by LC-MS analysis; format: physicochemical; settings: buffer, pH 8.8, 24 h
[38] = test system: Mus musculus; test: Toxicity in ICR mouse assessed as mortality up to 2000 mg/kg, po administered as single dose measured for 2 weeks; format: organism-based; settings: in vivo, 336 h
[39] = test system: Oryctolagus cuniculus; test: Toxicity in topically applied rabbit assessed as skin irritation measured up to 14 days post dose; settings: in vivo, topical_or_ocular, 336 h
[40] = test system: Oryctolagus cuniculus; test: Toxicity in topically dosed rabbit assessed as skin irritation by measuring behavioral abnormalities measured up to 7 days post dose; format: organism-based; settings: in vivo, topical_or_ocular, 168 h
[41] = test system: TERT-RPE1; test: Cytotoxicity against human RPE1 cells assessed as disruption of cell membrane integrity at >80 mg/L after 4 hrs by CytoTox-ONE-based assay; settings: tert-rpe1, 4 h
[42] = Chemical stability of compound at 50 to 500 mg/L at pH 0.18 after 24 hrs at 37 degC by LC-MS analysis; format: physicochemical; settings: buffer, pH 0.18, 24 h
[43] = test system: Oryctolagus cuniculus; test: Toxicity in topically applied rabbit assessed as skin irritation measured by measuring physiological abnormalities up to 7 days post dose; settings: in vivo, topical_or_ocular, 168 h

SMILES: CCCCCCCCCCCCCCOP(=O)(CCN(CCCN)CCCN)OC[C@H]1O[C@@H](n2ccc(=O)[nH]c2=O)[C@H](O)[C@@H]1O (stereo partly drawn)
- CMC [1]: 4.55 mM
- MIC [2]: 6.25 µg/mL (≈ 9.44 µM)
- MIC [3]: 0.78 µg/mL (≈ 1.18 µM)
- MIC [4]: 6.25 µg/mL (≈ 9.44 µM)
- MIC [5]: 0.78 µg/mL (≈ 1.18 µM)
- MIC [6]: 3.13 µg/mL (≈ 4.73 µM)
- MIC [7]: 1.56 µg/mL (≈ 2.36 µM)
- MIC [8]: 6.25 µg/mL (≈ 9.44 µM)
- MIC [9]: 1.56 µg/mL (≈ 2.36 µM)
- MIC [10]: 1.56 µg/mL (≈ 2.36 µM)
- MIC [11]: 100 µg/mL (≈ 151 µM)
- MIC [12]: 3.13 µg/mL (≈ 4.73 µM)
- MIC [13]: 50 µg/mL (≈ 75.5 µM)
- Activity [14]: Active
- Activity [15]: 0
- Activity [16]: Active
- Activity [17]: Active
- Activity [18]: Active
- Activity [19]: Active
- Activity [20]: Active
- inhibition [21]: inactive
- inhibition [22]: inactive
- Activity [23]: 73 to 151 pS
- Activity [24]: Active
- Activity [25]: Active
- Activity [26]: Active
- Activity [27]: Active
- Activity [28]: Active
- Activity [29]: Non-Toxic
- Activity [30]: 43 mg/L
- Activity [31]: 40.3 mg/L
- Activity [32]: Non-Toxic
- Activity [33]: Non-Toxic
- permeability [34]: Impermeable
- Stability [35]: Stable
- Stability [36]: Stable
- Stability [37]: Stable
- Activity [38]: Non-Toxic
- Activity [39]: Non-Toxic
- Activity [40]: Non-Toxic
- Activity [41]: Non-Toxic
- Stability [42]: Stable
- Activity [43]: Non-Toxic
